# According to PMC13534789, “Molecular Glue Degraders Enhance CAPRIN1‐Dependent Lysosomal Degradation of APP and Reduce Amyloid β in Alzheimer's Disease” (Advanced Science, 2026):
# Key:
# [1] = system: AD iPSC‐derived organoids; test: AD iPSC-derived 3D brain organoids; type: cell-based, human
# Description: For generating brain 3D organoids, Lancaster's protocol and Paşca's protocol were used with minor modifications. In brief, 9000 cells/ 100 µL of each well were seeded in Ultra‐low attachment 96 well U‐bottom plates (Sbio) supplemented with 10 µM of ROCK inhibitor. The next day, 100 µL of mTeSR1 was added, and the cells were cultured as embryonic bodies (EB) for 5 days at 37°C in 5% CO2 incubator. When the size of EB reached 400–600 µm, EBs were transferred into ultra‐low binding 24 well (Corning) with 200 µL of neural differentiation medium (Neurobasal medium (Gibco), 2% B27, 1X Glutamax) with 2 µg/mL of Doxycycline and incubated for 5 days at 37°C in 5% CO2 incubator until the size of EB was 700–800 µm. During this step, one EB was in one well, and the culture medium was changed every day with fresh neural differentiation medium with Doxycycline. At day 10, the EB was embedded into 15 µL of 100% Matrigel (Corning), and the embedded EBs were cultured in neural differentiation medium without Doxycycline in 6 well ultra‐low binding plates (Corning). […]
# iPSC‐Ns or HEK‐APP695WT were treated with drugs, and secreted Aβ42 peptides inculture soup were quantified using the Human Amyloid β1‐42 human ELISA kit (Thermo Fisher) according to the manufacturer's protocol. […] Prior to quantification, formic acid‐containing samples were neutralized with 1 M Tris base (pH 11). Aβ40 and Aβ42 levels were measured using human‐specific ELISA kits (Invitrogen) and normalized to total protein concentrations determined by the BCA assay (Thermo Scientific). For Aβ quantification in 3D organoids, 3D organoids’ processing and ELISA analysis were performed with minor modifications from previously described protocols. […] Aβ42 levels in both fractions were measured using human‐specific ELISA kits (Thermo Fisher) according to the manufacturer's instructions. […] Aβ levels were normalized to total protein concentration determined by BCA assay. […]
# 5xFAD transgenic mice = test: Amyloid pathology in 5xFAD mice (IHC, Thioflavin S, ELISA); type: in vivo, mouse
# From the text: Female 5xFAD transgenic mice (9–10 weeks old) were used to evaluate the efficacy of 0152 in reducing amyloid pathology. Mice were housed under Indiana University standard laboratory conditions. For intraperitoneal (IP) administration, mice received either vehicle or 0152 (indicated concentrations) in a formulation consisting of 20% DMSO, 20% Cremophor EL, and 60% PBS. For oral (PO) administration, mice received either vehicle or 0152 (indicated concentrations) in a formulation consisting of 10% NMP (N‐methyl‐2‐pyrrolidone), 10% PG (Propylene Glycol), 5% Solutol HS‐15, and 75% Captisol (10% w/v in RO water). At the end of the treatment period, mice were sacrificed, and their brains were collected for histological analysis. Brain tissues were fixed in 10% Formalin, embedded in paraffin, and sectioned. Thioflavin S staining was performed to visualize β‐sheet‐rich amyloid plaques, and immunohistochemistry was conducted using the 6E10 monoclonal antibody to detect Aβ plagues. Body weights were recorded daily throughout the study.
# iPSC‐Ns or HEK‐APP695WT were treated with drugs, and secreted Aβ42 peptides inculture soup were quantified using the Human Amyloid β1‐42 human ELISA kit (Thermo Fisher) according to the manufacturer's protocol. Mouse brain extraction was performed as previously described, with minor modifications. Mouse brain tissues were homogenized at a 1:10 weight‐to‐volume ratio in Tris‐buffered saline (TBS; 50 mM Tris, pH 7.4, 150 mM NaCl) supplemented with 2 mM EDTA and protease inhibitors. TBS‐homogenized brains were centrifuged for 1 h at 16 000 g. To extract total Aβ, including insoluble fractions, formic acid was added to a final concentration of 70%, and the samples were thoroughly mixed by pipetting. Homogenates were centrifuged at 100 000 g for 1 h at 4°C, and the resulting supernatants were collected. Prior to quantification, formic acid‐containing samples were neutralized with 1 M Tris base (pH 11). Aβ40 and Aβ42 levels were measured using human‐specific ELISA kits (Invitrogen) and normalized to total protein concentrations determined by the BCA assay (Thermo Scientific). For Aβ quantification in 3D organoids, 3D organoids’ processing and ELISA analysis were performed with minor modifications from previously described protocols. Briefly, cerebral organoids were lysed in RIPA buffer supplemented with protease and phosphatase inhibitor cocktails (Sigma), followed by sonication and incubation on ice for 60 min. Lysates were centrifuged at 13 000 rpm for 1 h at 4°C, and the supernatants were collected as the RIPA‐soluble fraction. The remaining pellets were resuspended in 70% formic acid, sonicated, and subsequently neutralized with Tris buffer to obtain the formic acid‐solubilized fraction. Aβ42 levels in both fractions were measured using human‐specific ELISA kits (Thermo Fisher) according to the manufacturer's instructions. Formic acid extracts were appropriately neutralized prior to ELISA. Aβ levels were normalized to total protein concentration determined by BCA assay.
# Autopsy samples of brain tissues were provided, and immunohistochemistry was performed in the Department of Pathology and Laboratory Medicine, Indiana University School of Medicine, following the institutional protocols. Paraffin‐embedded 3D organoids and human AD patient brain samples were subjected to Hematoxylin and Eosin (H&E), synapses, GFAP, CAPRIN1 (polyclonal Rabbit anti‐CAPRIN1, 15112‐1‐AP, Proteintech), APP (monoclonal mouse anti‐APP/Aβ (6E10), 803001, Biolegend; MAB348, Millipore Sigma) in a Dako automated instrument using the Dako Flex detection system. The primary antibodies and secondary antibodies were used in colocalization experiments with human AD brain biopsy samples, then imaged using a confocal microscope system. Thioflavin‐S was stained with deparaffinization and rehydration of mouse brain sections using a series of xylene and ethanol washes. […]
# [2] = 80 mg/kg IP twice per day, 30 days
structure (smiles),measurement,setting,value
COc1cccc(NC(=O)Nc2nc3ccc(C(=O)N4CCOCC4)cc3s2)c1 [compound 0152],APP/Aβ42 immunoreactivity in organoids,"[1]; AG27606 and UKBi011A organoids, 10 µM",reduced APP/Aβ42 levels
same,Aβ42 in organoids by ELISA,"[1]; AG27606 organoids, RIPA-soluble and formic acid-solubilized fractions",significantly reduced Aβ42 levels
same,CAPRIN1–APP colocalization in organoids,"[1]; AG27606 organoids, treated for three months",increased CAPRIN1–APP colocalization
same,"APP/Aβ-positive areas and plaque sizes in subiculum and hippocampus, plaque sizes in cortex (IHC)",5xFAD transgenic mice; [2],significantly reduced
same,Fibrillar Aβ plaques in subiculum (Thioflavin S),5xFAD transgenic mice; [2],drastically reduced fibrillar Aβ plaques
same,"APP/Aβ-positive areas and plaque sizes in subiculum (IHC, Thioflavin S)","5xFAD transgenic mice; 80 mg/kg oral gavage twice daily, 30 days",significant reduction
same,"APP/Aβ-positive area and amyloid plaque size, hippocampus and subiculum (IHC)","5xFAD transgenic mice; 100 mg/kg IP daily, 24 days",significant reductions
same,Aβ40 and Aβ42 levels in hemispheric brain lysates (ELISA),"5xFAD transgenic mice; 100 mg/kg IP daily, 24 days",marked decreases
same,Fibrillar Aβ plaques in subiculum (Thioflavin S),"5xFAD transgenic mice; 100 mg/kg IP daily, 24 days",reduced fibrillar Aβ plaques
same,Plaque burden in cortex (IHC),"5xFAD transgenic mice; 100 mg/kg IP daily, 24 days",minimal changes
